Source: the NIST ThermoML archive (doi:10.1021/je200213h)
± gives the expanded uncertainty stated by the source.

Tests used:
[1] = xn = mol fraction of the nth substance listed; conditions: 101 kPa, Liquid, Capillary tube (Ostwald / Ubbelohde) method
[2] = 101.33 kPa, Liquid, Capillary tube (Ostwald / Ubbelohde) method

CCC(C)Cl (stereo unspecified) [2-chlorobutane] + CCC(C)CC
kinematic viscosity [m2/s], [1]
Conditions	283.15 K	298.15 K	313.15 K
x2 = 0.0518	5.193e-07 ± 4.4e-09	4.574e-07 ± 4e-09	4.031e-07 ± 3.6e-09
x2 = 0.101	5.142e-07 ± 4.4e-09	4.542e-07 ± 4e-09	4.004e-07 ± 3.6e-09
x2 = 0.2014	5.066e-07 ± 4.3e-09	4.483e-07 ± 3.9e-09	3.958e-07 ± 3.5e-09
x2 = 0.3025	4.995e-07 ± 4.3e-09	4.431e-07 ± 3.9e-09	3.919e-07 ± 3.5e-09
x2 = 0.4027	4.943e-07 ± 4.2e-09	4.39e-07 ± 3.8e-09	3.885e-07 ± 3.5e-09
x2 = 0.4998	4.906e-07 ± 4.2e-09	4.362e-07 ± 3.8e-09	3.865e-07 ± 3.5e-09
x2 = 0.6043	4.881e-07 ± 4.2e-09	4.345e-07 ± 3.8e-09	3.851e-07 ± 3.4e-09
x2 = 0.7008	4.87e-07 ± 4.2e-09	4.34e-07 ± 3.8e-09	3.844e-07 ± 3.4e-09
x2 = 0.8004	4.874e-07 ± 4.2e-09	4.337e-07 ± 3.8e-09	3.847e-07 ± 3.4e-09
x2 = 0.8981	4.897e-07 ± 4.2e-09	4.344e-07 ± 3.8e-09	3.858e-07 ± 3.5e-09
x2 = 0.9481	4.911e-07 ± 4.2e-09	4.356e-07 ± 3.8e-09	3.868e-07 ± 3.5e-09

CCC(C)Cl (stereo unspecified) [2-chlorobutane] + CCCCCC
kinematic viscosity [m2/s], [1]
Conditions	283.15 K	298.15 K	313.15 K
x1 = 0.0509	5.186e-07 ± 4.4e-09	4.579e-07 ± 4e-09	4.034e-07 ± 3.6e-09
x1 = 0.1002	5.147e-07 ± 4.4e-09	4.548e-07 ± 4e-09	4.012e-07 ± 3.6e-09
x1 = 0.1802	5.09e-07 ± 4.3e-09	4.501e-07 ± 3.9e-09	3.98e-07 ± 3.5e-09
x1 = 0.3029	5.025e-07 ± 4.3e-09	4.448e-07 ± 3.9e-09	3.948e-07 ± 3.5e-09
x1 = 0.4045	4.989e-07 ± 4.3e-09	4.42e-07 ± 3.9e-09	3.932e-07 ± 3.5e-09
x1 = 0.4991	4.975e-07 ± 4.3e-09	4.408e-07 ± 3.9e-09	3.926e-07 ± 3.5e-09
x1 = 0.5974	4.968e-07 ± 4.3e-09	4.401e-07 ± 3.8e-09	3.926e-07 ± 3.5e-09
x1 = 0.6992	4.982e-07 ± 4.3e-09	4.406e-07 ± 3.9e-09	3.939e-07 ± 3.5e-09
x1 = 0.7996	5.007e-07 ± 4.3e-09	4.419e-07 ± 3.9e-09	3.961e-07 ± 3.5e-09
x1 = 0.8981	5.055e-07 ± 4.3e-09	4.447e-07 ± 3.9e-09	3.993e-07 ± 3.6e-09
x1 = 0.9477	5.086e-07 ± 4.3e-09	4.465e-07 ± 3.9e-09	4.015e-07 ± 3.6e-09

CCC(C)Cl (stereo unspecified) [2-chlorobutane] + CCCCCCC
kinematic viscosity [m2/s], [1]
Conditions	283.15 K	298.15 K	313.15 K
x1 = 0.0506	5.287e-07 ± 4.5e-09	4.649e-07 ± 4e-09	4.086e-07 ± 3.6e-09
x1 = 0.0989	5.334e-07 ± 4.5e-09	4.686e-07 ± 4.1e-09	4.121e-07 ± 3.6e-09
x1 = 0.2012	5.44e-07 ± 4.6e-09	4.78e-07 ± 4.1e-09	4.202e-07 ± 3.7e-09
x1 = 0.3016	5.558e-07 ± 4.7e-09	4.876e-07 ± 4.2e-09	4.283e-07 ± 3.8e-09
x1 = 0.3997	5.677e-07 ± 4.8e-09	4.978e-07 ± 4.3e-09	4.37e-07 ± 3.8e-09
x1 = 0.4984	5.812e-07 ± 4.9e-09	5.087e-07 ± 4.3e-09	4.461e-07 ± 3.9e-09
x1 = 0.5994	5.966e-07 ± 5e-09	5.206e-07 ± 4.4e-09	4.558e-07 ± 4e-09
x1 = 0.6994	6.128e-07 ± 5.1e-09	5.331e-07 ± 4.5e-09	4.652e-07 ± 4e-09
x1 = 0.7996	6.304e-07 ± 5.2e-09	5.467e-07 ± 4.6e-09	4.757e-07 ± 4.1e-09
x1 = 0.9006	6.496e-07 ± 5.4e-09	5.609e-07 ± 4.7e-09	4.866e-07 ± 4.2e-09
x1 = 0.9503	6.6e-07 ± 5.5e-09	5.684e-07 ± 4.8e-09	4.927e-07 ± 4.2e-09

CCC(C)CC [3-methylpentane]
[2]
Conditions	kinematic viscosity [m2/s]
283.15 K	4.928e-07 ± 4.2e-09
298.15 K	4.366e-07 ± 3.8e-09
313.15 K	3.881e-07 ± 3.5e-09

CCC(C)CC [3-methylpentane] + CCCCCl
kinematic viscosity [m2/s], [1]
Conditions	283.15 K	298.15 K	313.15 K
x1 = 0.0518	5.496e-07 ± 4.6e-09	4.734e-07 ± 4.1e-09	4.175e-07 ± 3.7e-09
x1 = 0.094	5.448e-07 ± 4.6e-09	4.704e-07 ± 4.1e-09	4.155e-07 ± 3.7e-09
x1 = 0.2038	5.326e-07 ± 4.5e-09	4.622e-07 ± 4e-09	4.088e-07 ± 3.6e-09
x1 = 0.304	5.228e-07 ± 4.5e-09	4.553e-07 ± 4e-09	4.036e-07 ± 3.6e-09
x1 = 0.4059	5.143e-07 ± 4.4e-09	4.5e-07 ± 3.9e-09	3.988e-07 ± 3.5e-09
x1 = 0.5021	5.075e-07 ± 4.3e-09	4.453e-07 ± 3.9e-09	3.952e-07 ± 3.5e-09
x1 = 0.5999	5.017e-07 ± 4.3e-09	4.411e-07 ± 3.9e-09	3.921e-07 ± 3.5e-09
x1 = 0.7043	4.97e-07 ± 4.3e-09	4.382e-07 ± 3.8e-09	3.896e-07 ± 3.5e-09
x1 = 0.8049	4.945e-07 ± 4.2e-09	4.365e-07 ± 3.8e-09	3.884e-07 ± 3.5e-09
x1 = 0.9038	4.928e-07 ± 4.2e-09	4.351e-07 ± 3.8e-09	3.879e-07 ± 3.5e-09
x1 = 0.9492	4.928e-07 ± 4.2e-09	4.355e-07 ± 3.8e-09	3.877e-07 ± 3.5e-09

CCCCCCC [heptane]
[2]
Conditions	kinematic viscosity [m2/s]
283.15 K	6.697e-07 ± 5.5e-09
298.15 K	5.754e-07 ± 4.8e-09
313.15 K	4.986e-07 ± 4.3e-09

CCCCCC [hexane]
[2]
Conditions	kinematic viscosity [m2/s]
283.15 K	5.125e-07 ± 4.4e-09
298.15 K	4.493e-07 ± 3.9e-09
313.15 K	4.039e-07 ± 3.6e-09
